molecular target: T1, androgen receptor (AR-LBD) (Rattus norvegicus, UniProt P15207); test: Evaluation of androgen receptor affinity (PolarScreen Androgen Receptor Competitor Assay Kit, Red; fluorescence polarization); details: 22° C. for 5 hours, relative to binding rate of 1 μM DHT, read-out: AR affinity (pEC50) (converted)
T1 construct: 5 μL of 2×AR-LBD/Fluoromone AL Red Complex contained in the kit; purchased Invitrogen
T1 sequence (P15207 651-882 limits assumed): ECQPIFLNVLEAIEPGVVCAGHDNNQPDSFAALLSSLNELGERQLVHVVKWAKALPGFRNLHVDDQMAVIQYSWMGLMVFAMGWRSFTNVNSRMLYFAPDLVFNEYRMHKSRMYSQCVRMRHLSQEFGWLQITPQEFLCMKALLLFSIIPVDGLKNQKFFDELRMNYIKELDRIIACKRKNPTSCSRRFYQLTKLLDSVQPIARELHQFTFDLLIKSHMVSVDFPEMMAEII
Description: Evaluation of an Androgen Receptor Affinity
To examine the interaction of a compound with an androgen receptor, evaluation was carried out in accordance with the following procedure using PolarScreen™ Androgen Receptor Competitor Assay Kit, Red (Invitrogen). To 2 wells each of a 384 well black plate was added 5 μL of the compound solution. To each well was added 5 μL of 2×AR-LBD/Fluoromone AL Red Complex contained in the kit and the samples were reacted at 22° C. for 5 hours. After 5 hours of the reaction, fluorescence polarization was measured and the affinity was evaluated. The affinity of the compound was determined by comparing to the binding rate of 1 μM of dihydrotestosterone (DHT), and quantified the logarithm value (pEC50) of reciprocal value of the effective concentration of the compound which is equal to 50% of the binding rate by applying a 4 parameter goodness-of-fit calculation.

| SMILES | EC50 [nM] |
| --- | --- |
| Cc1sc(N(Cc2ccccc2)c2ccc(C#N)cc2)nc1C(=O)NS(=O)(=O)CCN1C(=O)c2ccccc2C1=O [Compound 373, 2-(N-benzyl-4-cyano-anilino)-N-[2-(1,3-dioxoisoindolin-2-yl)ethylsulfonyl]-5-methyl-thiazole-4-carboxamide] | > 2000 |
| Cc1sc(N(Cc2ccccc2)c2ccc(C#N)cc2)nc1C(=O)NS(=O)(=O)c1ccccc1 [Compound 375, N-(benzenesulfonyl)-2-(N-benzyl-4-cyano-anilino)-5-methyl-thiazole-4-carboxamide] | > 2000 |
| COCC(CN(c1ccc(C#N)cc1)c1nc(C(=O)NS(C)(=O)=O)c(C)s1)c1ccccc1 (stereo not drawn) [Compound 377, 2-(4-cyano-N-(3-methoxy-2-phenyl-propyl)anilino)-5-methyl-N-methylsulfonyl-thiazole-4-carboxamide] | > 2000 |
| Cc1sc(N(Cc2ccccc2)c2ccc(C#N)cc2)nc1C(=O)NS(=O)(=O)c1cccnc1 [Compound 381, 2-(N-benzyl-4-cyano-anilino)-5-methyl-N-(3-pyridylsulfonyl)thiazole-4-carboxamide] | 794 |
| Cc1sc(N(Cc2ccccc2)c2ccc(C#N)cc2)nc1C(=O)NS(=O)(=O)CCN1C(=O)CCC1=O [Compound 383, 2-(N-benzyl-4-cyano-anilino)-N-[2-(2,5-dioxopyrrolidin-1-yl)ethylsulfonyl]-5-methyl-thiazole-4-carboxamide] | > 2000 |
| Cc1sc(N(Cc2ccccc2)c2ccc(C#N)cc2)nc1C(=O)NS(=O)(=O)/C=C/c1ccccc1 [Compound 385, 2-(N-benzyl-4-cyano-anilino)-5-methyl-N-[(E)-styryl]sulfonyl-thiazole-4-carboxamide] | 794 |
| Cc1sc(N(Cc2ccccc2)c2ccc(C#N)cc2)nc1C(=O)NS(=O)(=O)c1cn(C)cn1 [Compound 394, 2-(N-benzyl-4-cyano-anilino)-5-methyl-N-(1-methylimidazol-4-yl)sulfonyl-thiazole-4-carboxamide] | > 2000 |
| COCCOc1cccc(N(Cc2ccccc2)c2nc(C(=O)NS(C)(=O)=O)c(C)s2)c1 [Compound 398, 2-[N-benzyl-3-(2-methoxyethoxy)anilino]-5-methyl-N-methylsulfonyl-thiazole-4-carboxamide] | > 2000 |
| Cc1sc(N(Cc2ccccc2)c2ccccn2)nc1C(=O)NS(C)(=O)=O [Compound 408, 2-[benzyl(2-pyridyl)amino]-5-methyl-N-methylsulfonyl-thiazole-4-carboxamide] | > 2000 |
| Cc1sc(N(Cc2ccc(C(F)(F)F)cc2C(F)(F)F)c2ccc(C#N)cc2)nc1C(=O)NS(C)(=O)=O [Compound 414, 2-[N-[[2,4-bis(trifluoromethyl)phenyl]methyl]-4-cyano-anilino]-5-methyl-N-methylsulfonyl-thiazole-4-carboxamide] | 501 |
| Cc1sc(N(Cc2cc(C(F)(F)F)ccc2C(F)(F)F)c2ccc(C#N)cc2)nc1C(=O)NS(C)(=O)=O [Compound 415, 2-[N-[[2,5-bis(trifluoromethyl)phenyl]methyl]-4-cyano-anilino]-5-methyl-N-methylsulfonyl-thiazole-4-carboxamide] | > 2000 |
| Cc1sc(N(Cc2ccccc2)c2ccncc2)nc1C(=O)NS(C)(=O)=O [Compound 422, 2-[benzyl(4-pyridyl)amino]-5-methyl-N-methylsulfonyl-thiazole-4-carboxamide] | 1260 |
| Cc1sc(N(Cc2ccccc2)c2ccccc2)nc1C(=O)NS(C)(=O)=O [Compound 428, 2-(N-benzylanilino)-5-methyl-N-methylsulfonyl-thiazole-4-carboxamide] | > 2000 |

The remaining lines, values ahead:

| EC50 [nM] | SMILES |
| --- | --- |
| > 2000 | Cc1sc(N(CC2CCC(=O)CC2)c2ccc(C#N)cc2)nc1C(=O)NS(C)(=O)=O [Compound 350, 2-[4-cyano-N-[(4-oxocyclohexyl)methyl]anilino]-5-methyl-N-methylsulfonyl-thiazole-4-carboxamide] |
| > 2000 | Cc1sc(N(CC2CCC(N(C)C)CC2)c2ccc(C#N)cc2)nc1C(=O)NS(C)(=O)=O (stereo not drawn) [Compound 352, 2-[4-cyano-N-[[4-(dimethylamino)cyclohexyl]methyl]anilino]-5-methyl-N-methylsulfonyl-thiazole-4-carboxamide] |
| > 2000 | Cc1sc(N(C[C@H]2CC[C@@H](O)CC2)c2ccc(C#N)cc2)nc1C(=O)NS(C)(=O)=O [Compound 353, 2-[4-cyano-N-[(cis-4-hydroxycyclohexyl)methyl]anilino]-5-methyl-N-methylsulfonyl-thiazole-4-carboxamide] |
| > 2000 | Cc1sc(N(C[C@H]2CC[C@H](O)CC2)c2ccc(C#N)cc2)nc1C(=O)NS(C)(=O)=O [Compound 354, 2-[4-cyano-N-[(trans-4-hydroxycyclohexyl)methyl]anilino]-5-methyl-N-methylsulfonyl-thiazole-4-carboxamide] |
| 501 | Cc1sc(N(Cc2ccccc2CO)c2ccc(C#N)cc2)nc1C(=O)NS(C)(=O)=O [Compound 355, 2-[4-cyano-N-[[2-(hydroxymethyl)phenyl]methyl]anilino]-5-methyl-N-methylsulfonyl-thiazole-4-carboxamide] |
| 631 | Cc1sc(N(Cc2ccc(CO)cc2)c2ccc(C#N)cc2)nc1C(=O)NS(C)(=O)=O [Compound 356, 2-[4-cyano-N-[[4-(hydroxymethyl)phenyl]methyl]anilino]-5-methyl-N-methylsulfonyl-thiazole-4-carboxamide] |
| > 2000 | COCCN(c1ccc(C#N)cc1)c1nc(C(=O)NS(C)(=O)=O)c(C)s1 [Compound 357, 2-[4-cyano-N-(2-methoxyethyl)anilino]-5-methyl-N-methylsulfonyl-thiazole-4-carboxamide] |
| > 2000 | Cc1sc(N(CCCCO)c2ccc(C#N)cc2)nc1C(=O)NS(C)(=O)=O [Compound 358, 2-[4-cyano-N-(4-hydroxybutyl)anilino]-5-methyl-N-methylsulfonyl-thiazole-4-carboxamide] |
| > 2000 | Cc1sc(N(CCCC#N)c2ccc(C#N)cc2)nc1C(=O)NS(C)(=O)=O [Compound 360, 2-[4-cyano-N-(3-cyanopropyl)anilino]-5-methyl-N-methylsulfonyl-thiazole-4-carboxamide] |
| 794 | Cc1sc(N(Cc2cscn2)c2ccc(C#N)cc2)nc1C(=O)NS(C)(=O)=O [Compound 380, 2-[4-cyano-N-(thiazol-4-ylmethyl)anilino]-5-methyl-N-methylsulfonyl-thiazole-4-carboxamide] |
| 1580 | Cc1sc(N(Cc2ccc3nc[nH]c3c2)c2ccc(C#N)cc2)nc1C(=O)NS(C)(=O)=O [Compound 389, 2-[N-(3H-benzimidazol-5-ylmethyl)-4-cyano-anilino]-5-methyl-N-methylsulfonyl-thiazole-4-carboxamide] |
| > 2000 | Cc1sc(N(Cc2nccs2)c2ccc(C#N)cc2)nc1C(=O)NS(C)(=O)=O [Compound 392, 2-[4-cyano-N-(thiazol-2-ylmethyl)anilino]-5-methyl-N-methylsulfonyl-thiazole-4-carboxamide] |
| 1000 | Cc1sc(N(Cc2cccc3cnccc23)c2ccc(C#N)cc2)nc1C(=O)NS(C)(=O)=O [Compound 402, 2-[4-cyano-N-(5-isoquinolylmethyl)anilino]-5-methyl-N-methylsulfonyl-thiazole-4-carboxamide] |
| > 2000 | Cc1sc(N(CC2CCCC2O)c2ccc(C#N)cc2)nc1C(=O)NS(C)(=O)=O (stereo not drawn) [Compound 405, 2-[4-cyano-N-[(2-hydroxycyclopentyl)methyl]anilino]-5-methyl-N-methylsulfonyl-thiazole-4-carboxamide] |
| > 2000 | Cc1sc(N(CC(=O)NC2CC2)c2ccc(C#N)cc2)nc1C(=O)NS(C)(=O)=O [Compound 412, 2-(4-cyano-N-[2-(cyclopropylamino)-2-oxo-ethyl]anilino)-5-methyl-N-methylsulfonyl-thiazole-4-carboxamide] |
| > 2000 | Cc1sc(N(CC(=O)NC2CCCCC2)c2ccc(C#N)cc2)nc1C(=O)NS(C)(=O)=O [Compound 423, 2-(4-cyano-N-[2-(cyclohexylamino)-2-oxo-ethyl]anilino)-5-methyl-N-methylsulfonyl-thiazole-4-carboxamide] |
| > 2000 | Cc1sc(N(CC(=O)N(C)C2CCCCC2)c2ccc(C#N)cc2)nc1C(=O)NS(C)(=O)=O [Compound 424, 2-(4-cyano-N-[2-[cyclohexyl(methyl)amino]-2-oxo-ethyl]anilino)-5-methyl-N-methylsulfonyl-thiazole-4-carboxamide] |
| 1260 | Cc1sc(N(CC(=O)Nc2ccccc2)c2ccc(C#N)cc2)nc1C(=O)NS(C)(=O)=O [Compound 425, 2-(N-(2-anilino-2-oxo-ethyl)-4-cyano-anilino)-5-methyl-N-methylsulfonyl-thiazole-4-carboxamide] |
| > 2000 | Cc1sc(N(CC(=O)N(C)c2ccccc2)c2ccc(C#N)cc2)nc1C(=O)NS(C)(=O)=O [Compound 426, 2-(4-cyano-N-[2-(N-methylanilino)-2-oxo-ethyl]anilino)-5-methyl-N-methylsulfonyl-thiazole-4-carboxamide] |
| > 2000 | Cc1sc(N(CC2CCCC(O)C2)c2ccc(C#N)cc2)nc1C(=O)NS(C)(=O)=O (stereo not drawn) [Compound 427, 2-[4-cyano-N-[(3-hydroxycyclohexyl)methyl]anilino]-5-methyl-N-methylsulfonyl-thiazole-4-carboxamide] |

— patent US10689354B2, “Aminoazole derivative” (Teijin Pharma Limited, priority 2015, dated 2020)
